Assay results from patent publication US5344941A, “Water soluble salts of thionaphthene-2-carboxylic acid” (priority 1992, dated 1994).
Counter-ions that a name gives are not always drawn.

Columns and labels:
[1] = pH of a 5% aqueous solution of the salt; assay type: physicochemical
[2] = Solubility in water and organic solvents
[3] = in vivo
[4] = in vivo; remark: listed apart in the source
From the text: The utility of the salts, in a clinical treating sense, is equivalent to TNCA itself but they are far more useful, practically, for the reasons of amelioration of side effects and the high blood levels available via the oral route.

[5] = test system: rats made hypercalcemic by the injection of Leydig-cell carcinoma-tumor material; assay: Reduction of blood calcium levels of rats made hypercalcemic by injection of Leydig-cell carcinoma-tumor material; assay type: in vivo
Experimental: The following tables (Experiments I and II) illustrate the effectiveness of the present invention in reducing the blood calcium levels of rats made hypercalcemic by the injection of Leydig-cell carcinoma-tumor material. For details of the methodology employed in these studies, see: Johannesson et al., Endocrinology 117/4: 1508-1511 (1985). Normal calcium blood levels are in the range of 9-10 mg/dL.
In the table, n=number of rats evaluated at each dosage and in controls while S.D.=standard deviation. These higher initial values reflect Leydig cell-induced hypercalcemia. Data for final calcium levels show the decreases in calcium levels produced following administration of the lysine salt of TNCA.

[6] = Acute toxicity (LD50) by oral route and by injection; details: mouse, in vivo
[7] = test system: mice; assay: as above; details: oral vs intraperitoneal
[8] = pK; assay type: physicochemical
[9] = test system: mice; details: cited from earlier work

Q: What does the source list for `O=C(O)c1cc2ccccc2s1` [Example 5, Piperidine salt of TNCA]?
A: pH of a 5% aqueous solution [1]: 6.4; Water solubility (in words) ([2]; water): moderately water-soluble

Q: With `O=C(O)c1cc2ccccc2s1` [Example 1, Benzo(b)thiophene-2-carboxylic acid L-Lysine salt] as the molecule, how does the Gastric irritation [3] read?
A: The Gastric irritation was “prevents the adverse effects associated with gastric irritation”.

Q: And the “Absorption from the gastrointestinal tract / following oral administration” value [4]?
A: The value was “readily absorbed following oral administration”.

Q: And the “pH of a 5% aqueous solution” value [1]?
A: Its value is 5.75.

Q: And the “Initial calcium levels (mean)” value ([5]; Experiment 1, 195 mg/kg group, N=8, initial (before treatment))?
A: The value was 12.28 mg/dL.

Q: And the “Final calcium levels (mean)” value ([5]; Experiment 1, 195 mg/kg, N=8, control 17.38)?
A: Its value is 14.85 mg/dL.

Q: What about the “Initial calcium levels (mean)” value ([5]; Experiment 1, 292 mg/kg group, N=9, initial (before treatment)) of the same molecule?
A: The value was 13.31 mg/dL.

Q: What about the “Final calcium levels (mean)” value ([5]; Experiment 1, 292 mg/kg, N=9, control 17.38) of the same molecule?
A: Its value is 11.54 mg/dL.

Q: What about the “Initial calcium (mean)” value ([5]; Experiment 2, 195 mg/kg group, N=6, initial (before treatment)) of the same molecule?
A: The value was 14.07 mg/dL.

Q: What about the “Final calcium levels (mean)” value ([5]; Experiment 2, 195 mg/kg, N=6, control 18.03) of the same molecule?
A: Its value is 13.27 mg/dL.

Q: And the “Initial calcium (mean)” value ([5]; Experiment 2, 292 mg/kg group, N=6, initial (before treatment))?
A: Its value is 14.68 mg/dL.

Q: What about the “Final calcium levels (mean)” value ([5]; Experiment 2, 292 mg/kg, N=6, control 18.03) of the same molecule?
A: The value was 11.00 mg/dL.

Q: And the “Initial calcium (mean)” value ([5]; Experiment 2, 389 mg/kg group, N=10, initial (before treatment))?
A: Its value is 13.80 mg/dL.

Q: What about the “Final calcium levels (mean)” value ([5]; Experiment 2, 389 mg/kg, N=8, control 18.03) of the same molecule?
A: The value was 10.16 mg/dL.

Q: And the “Decrease in calcium levels, dose relation” value ([5]; Experiments 1 and 2)?
A: Its value is “clearly does-related in both experiments”.

Q: What about the “Type of calcium-lowering activity” value ([5]; Experiments 1 and 2) of the same molecule?
A: The value was “anti-hypercalcemic, rather than hypocalcemic”.

Q: And the “Serum calcium levels following treatment” value ([5]; relative to pretreatment / normal levels)?
A: Its value is “returned to pretreatment levels, but not to below normal values”.

Q: What about the “Solubility in ethanol (ethyl alcohol)” value [2] of the same molecule?
A: The value was “insoluble”.

Q: What about the “Solubility in methanol (methyl alcohol)” value [2] of the same molecule?
A: The value was “insoluble”.

Q: And the Solubility in toluene ([2]; toluene)?
A: The Solubility in toluene was “insoluble”.

Q: And the solubility ([2]; water)?
A: The solubility was 700 mg/mL.

Q: And the LD50 [6]?
A: Its LD50 is about 1300 mg/kg.

Q: What about the LD50 ([6]; po) of the same molecule?
A: The LD50 was about 1500 mg/kg.

Q: What about the “LD50 given orally compared to that obtained when administered intraperitoneally” value [7] of the same molecule?
A: The value was “almost equivalent”.

Q: Which “Water solubility (in words)” value ([2]; water) does the source give for `O=C(O)c1cc2ccccc2s1` [Example 7] here?
A: Its value is “water-insoluble”.

Q: With `O=C(O)c1cc2ccccc2s1` [potassium, potassium salt of TNCA] as the molecule, how does the “Water solubility (in words)” value ([2]; water) read?
A: The value was “mainly insoluble in water”.

Q: Which “pH of a 5% aqueous solution” value [1] does the source give for `O=C(O)c1cc2ccccc2s1` [Example 4, Arginine salt of TNCA] here?
A: Its value is 5.8.

Q: What about the “Solubility in ethanol (ethyl alcohol)” value [2] of the same molecule?
A: Its value is “soluble”.

Q: What about the “Solubility in methanol (methyl alcohol)” value [2] of the same molecule?
A: Its value is “soluble”.

Q: And the “Water solubility (in words)” value ([2]; water)?
A: Its value is “water-soluble”.

Q: With `O=C(O)c1cc2ccccc2s1` [Example 3, Ammonium salt of TNCA] as the molecule, how does the “pH of a 5% aqueous solution” value [1] read?
A: Its value is 6.05.

Q: What about the “Water solubility (in words)” value ([2]; water) of the same molecule?
A: Its value is “water-soluble”.

Q: What does the source list for `O=C(O)c1cc2ccccc2s1` [TNCA, benzo(b)thiophene-2-carboxylic acid, reference compound]?
A: Gastric irritation [3]: causes gastric irritation, resulting in vomiting and bleeding; Absorption from the gastrointestinal tract / following oral administration [4]: poorly absorbed from the gastrointestinal tracts; pKa [8]: 3.4; LD50 by injection ([9]; by injection, value repeated in text): 1450 mg/kg; LD50 ([9]; mice, oral, TNCA in gum tragacanth): 3600 mg/kg; Solubility in methanol (methyl alcohol) [2]: soluble in methanol

Q: What does the source list for `O=C(O)c1cc2ccccc2s1` [Example 6, Sodium salt of TNCA]?
A: Water solubility (in words) ([2]; water): water-insoluble; Water solubility (in words) ([2]; water, listed as sodium): mainly insoluble in water

Q: What does the source list for `O=C(O)c1cc2ccccc2s1` [Example 2]?
A: pH of a 5% aqueous solution [1]: 6.77; Water solubility (in words) ([2]; water): water-soluble

Q: Which “Water solubility (in words)” value ([2]; water) does the source give for `C[C@H](N)C(=O)O` [L-alanine] here?
A: Its value is “No water-soluble reaction product is formed”.
